According to the supplement of paper PMC10307832:

Experiments:
Test in all cases: relative viability (nuclei count vs DMSO), 5 days (fraction); higher = more cells survive
[1] = compound: Cc1ccc2nc(NCCN)c3ncc(C)n3c2c1 + NC(=O)Nc1cc(-c2cccc(F)c2)sc1C(=O)N[C@H]1CCCNC1 [AZD7762] (partner 0.2 µM)
In short: (§1)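 One day after seeding in 1536-well plates, lung cancer cell lines were dosed by pin tool. Dosing was either single-drug or a fixed anchor-drug dose plus five library-drug doses (not always all listed) in √10 steps. After 5 days, nuclei were stained in one fix-and-stain step and counted on 4× images, and relative viability is the nuclei count of treated wells over that of vehicle wells, given as the median of duplicate plates.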

Salubrinal + Crizotinib = compound: O=C(/C=C/c1ccccc1)NC(NC(=S)Nc1cccc2cccnc12)C(Cl)(Cl)Cl [Salubrinal] + C[C@@H](Oc1cc(-c2cnn(C3CCNCC3)c2)cnc1N)c1c(Cl)ccc(F)c1Cl [Crizotinib] (partner 1 µM)
In short: as §1

[2] = compound: Cc1ccc2nc(NCCN)c3ncc(C)n3c2c1 + O=C(c1cc(Cc2n[nH]c(=O)c3ccccc23)ccc1F)N1CCN(C(=O)C2CC2)CC1 [Olaparib] (partner 8 µM)
In short: as §1

Salubrinal + Foretinib = compound: O=C(/C=C/c1ccccc1)NC(NC(=S)Nc1cccc2cccnc12)C(Cl)(Cl)Cl [Salubrinal] + COc1cc2c(Oc3ccc(NC(=O)C4(C(=O)Nc5ccc(F)cc5)CC4)cc3F)ccnc2cc1OCCCN1CCOCC1 [Foretinib] (partner 0.25 µM)
In short: as §1

For NCI-H2126, the relative viability ([1]; first compound 0.04 µM) was 1.12, the relative viability ([1]; first compound 0.1265 µM) was 1.01 and the relative viability ([1]; first compound 0.4 µM) was 0.965. The relative viability ([1]; first compound 1.265 µM) was 1.14, the relative viability ([1]; first compound 4 µM) was 0.936 and the relative viability (Salubrinal + Crizotinib; first compound 0.08 µM) was 1.14. The relative viability (Salubrinal + Crizotinib; first compound 0.253 µM) was 0.961, the relative viability (Salubrinal + Crizotinib; first compound 0.8 µM) was 1.12 and the relative viability (Salubrinal + Crizotinib; first compound 2.53 µM) was 1.01. The relative viability (Salubrinal + Crizotinib; first compound 8 µM) was 1.03, the relative viability ([2]; first compound 0.04 µM) was 0.924 and the relative viability ([2]; first compound 0.1265 µM) was 0.903. For the same cell line, the relative viability ([2]; first compound 0.4 µM) was 0.943, the relative viability ([2]; first compound 1.265 µM) was 0.932 and the relative viability ([2]; first compound 4 µM) was 0.888. It also gave a relative viability (Salubrinal + Foretinib; first compound 0.08 µM) of 1.51, a relative viability (Salubrinal + Foretinib; first compound 0.253 µM) of 1.13 and a relative viability (Salubrinal + Foretinib; first compound 0.8 µM) of 1.1. It also gave a relative viability (Salubrinal + Foretinib; first compound 2.53 µM) of 1.25 and a relative viability (Salubrinal + Foretinib; first compound 8 µM) of 1.11.
NCI-H2170 showed a relative viability ([1]; first compound 0.04 µM) of 0.874, a relative viability ([1]; first compound 0.1265 µM) of 0.897 and a relative viability ([1]; first compound 0.4 µM) of 0.821. For the same cell line, the relative viability ([1]; first compound 1.265 µM) was 0.761, the relative viability ([1]; first compound 4 µM) was 0.845 and the relative viability (Salubrinal + Crizotinib; first compound 0.08 µM) was 1.45. It also gave a relative viability (Salubrinal + Crizotinib; first compound 0.253 µM) of 1.06, a relative viability (Salubrinal + Crizotinib; first compound 0.8 µM) of 1.38 and a relative viability (Salubrinal + Crizotinib; first compound 2.53 µM) of 1.26. It also gave a relative viability (Salubrinal + Crizotinib; first compound 8 µM) of 1.21, a relative viability ([2]; first compound 0.04 µM) of 0.627 and a relative viability ([2]; first compound 0.1265 µM) of 0.702. For the same cell line, the relative viability ([2]; first compound 0.4 µM) was 0.56, the relative viability ([2]; first compound 1.265 µM) was 0.549 and the relative viability ([2]; first compound 4 µM) was 0.637. For the same cell line, the relative viability (Salubrinal + Foretinib; first compound 0.08 µM) was 1.14, the relative viability (Salubrinal + Foretinib; first compound 0.253 µM) was 0.808 and the relative viability (Salubrinal + Foretinib; first compound 0.8 µM) was 1.07. For the same cell line, the relative viability (Salubrinal + Foretinib; first compound 2.53 µM) was 1.04 and the relative viability (Salubrinal + Foretinib; first compound 8 µM) was 0.888.
NCI-H2347 showed a relative viability ([1]; first compound 0.04 µM) of 0.719, a relative viability ([1]; first compound 0.1265 µM) of 0.733 and a relative viability ([1]; first compound 0.4 µM) of 0.687. For the same cell line, the relative viability ([1]; first compound 1.265 µM) was 0.794, the relative viability ([1]; first compound 4 µM) was 0.636 and the relative viability (Salubrinal + Crizotinib; first compound 0.08 µM) was 0.709. It also gave a relative viability (Salubrinal + Crizotinib; first compound 0.253 µM) of 0.709, a relative viability (Salubrinal + Crizotinib; first compound 0.8 µM) of 0.772 and a relative viability (Salubrinal + Crizotinib; first compound 2.53 µM) of 0.76. For the same cell line, the relative viability (Salubrinal + Crizotinib; first compound 8 µM) was 0.719, the relative viability ([2]; first compound 0.04 µM) was 0.601 and the relative viability ([2]; first compound 0.1265 µM) was 0.566. The relative viability ([2]; first compound 0.4 µM) was 0.485, the relative viability ([2]; first compound 1.265 µM) was 0.525 and the relative viability ([2]; first compound 4 µM) was 0.501. For the same cell line, the relative viability (Salubrinal + Foretinib; first compound 0.08 µM) was 0.906, the relative viability (Salubrinal + Foretinib; first compound 0.253 µM) was 1.15 and the relative viability (Salubrinal + Foretinib; first compound 0.8 µM) was 1.4. For the same cell line, the relative viability (Salubrinal + Foretinib; first compound 2.53 µM) was 0.797 and the relative viability (Salubrinal + Foretinib; first compound 8 µM) was 1.08.
With NCI-H2405 the relative viability ([1]; first compound 0.04 µM) was 0.855, the relative viability ([1]; first compound 0.1265 µM) was 0.682 and the relative viability ([1]; first compound 0.4 µM) was 0.758. For the same cell line, the relative viability ([1]; first compound 1.265 µM) was 0.671, the relative viability ([1]; first compound 4 µM) was 0.639 and the relative viability (Salubrinal + Crizotinib; first compound 0.08 µM) was 0.858. The relative viability (Salubrinal + Crizotinib; first compound 0.253 µM) was 0.866, the relative viability (Salubrinal + Crizotinib; first compound 0.8 µM) was 0.922 and the relative viability (Salubrinal + Crizotinib; first compound 2.53 µM) was 0.924. For the same cell line, the relative viability (Salubrinal + Crizotinib; first compound 8 µM) was 0.958, the relative viability ([2]; first compound 0.04 µM) was 0.91 and the relative viability ([2]; first compound 0.1265 µM) was 0.795. It also gave a relative viability ([2]; first compound 0.4 µM) of 0.927, a relative viability ([2]; first compound 1.265 µM) of 0.825 and a relative viability ([2]; first compound 4 µM) of 0.779. It also gave a relative viability (Salubrinal + Foretinib; first compound 0.08 µM) of 1.06, a relative viability (Salubrinal + Foretinib; first compound 0.253 µM) of 1.05 and a relative viability (Salubrinal + Foretinib; first compound 0.8 µM) of 1.05. The relative viability (Salubrinal + Foretinib; first compound 2.53 µM) was 1.05 and the relative viability (Salubrinal + Foretinib; first compound 8 µM) was 1.01.
NCI-H3122 showed a relative viability ([1]; first compound 0.04 µM) of 1.05, a relative viability ([1]; first compound 0.1265 µM) of 1.04 and a relative viability ([1]; first compound 0.4 µM) of 0.98. It also gave a relative viability ([1]; first compound 1.265 µM) of 0.973, a relative viability ([1]; first compound 4 µM) of 1.05 and a relative viability (Salubrinal + Crizotinib; first compound 0.08 µM) of 0.285. It also gave a relative viability (Salubrinal + Crizotinib; first compound 0.253 µM) of 0.277, a relative viability (Salubrinal + Crizotinib; first compound 0.8 µM) of 0.255 and a relative viability (Salubrinal + Crizotinib; first compound 2.53 µM) of 0.295. It also gave a relative viability (Salubrinal + Crizotinib; first compound 8 µM) of 0.276, a relative viability ([2]; first compound 0.04 µM) of 0.653 and a relative viability ([2]; first compound 0.1265 µM) of 0.67. It also gave a relative viability ([2]; first compound 0.4 µM) of 0.507, a relative viability ([2]; first compound 1.265 µM) of 0.582 and a relative viability ([2]; first compound 4 µM) of 0.579. The relative viability (Salubrinal + Foretinib; first compound 0.08 µM) was 1.07, the relative viability (Salubrinal + Foretinib; first compound 0.253 µM) was 0.924 and the relative viability (Salubrinal + Foretinib; first compound 0.8 µM) was 1.03. It also gave a relative viability (Salubrinal + Foretinib; first compound 2.53 µM) of 0.986 and a relative viability (Salubrinal + Foretinib; first compound 8 µM) of 0.964.
With PC-3 [JPC-3] the relative viability ([1]; first compound 0.04 µM) was 0.883, the relative viability ([1]; first compound 0.1265 µM) was 0.623 and the relative viability ([1]; first compound 0.4 µM) was 0.829. For the same cell line, the relative viability ([1]; first compound 1.265 µM) was 0.728, the relative viability ([1]; first compound 4 µM) was 0.591 and the relative viability (Salubrinal + Crizotinib; first compound 0.08 µM) was 1.08. It also gave a relative viability (Salubrinal + Crizotinib; first compound 0.253 µM) of 0.679, a relative viability (Salubrinal + Crizotinib; first compound 0.8 µM) of 1.11 and a relative viability (Salubrinal + Crizotinib; first compound 2.53 µM) of 0.976. It also gave a relative viability (Salubrinal + Crizotinib; first compound 8 µM) of 0.997, a relative viability ([2]; first compound 0.04 µM) of 1.23 and a relative viability ([2]; first compound 0.1265 µM) of 1.09. The relative viability ([2]; first compound 0.4 µM) was 1.13, the relative viability ([2]; first compound 1.265 µM) was 1.11 and the relative viability ([2]; first compound 4 µM) was 1.02. It also gave a relative viability (Salubrinal + Foretinib; first compound 0.08 µM) of 0.99, a relative viability (Salubrinal + Foretinib; first compound 0.253 µM) of 0.918 and a relative viability (Salubrinal + Foretinib; first compound 0.8 µM) of 1.07. For the same cell line, the relative viability (Salubrinal + Foretinib; first compound 2.53 µM) was 1 and the relative viability (Salubrinal + Foretinib; first compound 8 µM) was 0.998.
In the case of PC-14, the relative viability ([1]; first compound 0.04 µM) is reported as 0.388, the relative viability ([1]; first compound 0.1265 µM) is reported as 0.298 and the relative viability ([1]; first compound 0.4 µM) is reported as 0.239. For the same cell line, the relative viability ([1]; first compound 1.265 µM) was 0.399, the relative viability ([1]; first compound 4 µM) was 0.287 and the relative viability (Salubrinal + Crizotinib; first compound 0.08 µM) was 0.927. It also gave a relative viability (Salubrinal + Crizotinib; first compound 0.253 µM) of 0.853, a relative viability (Salubrinal + Crizotinib; first compound 0.8 µM) of 0.935 and a relative viability (Salubrinal + Crizotinib; first compound 2.53 µM) of 0.885. For the same cell line, the relative viability (Salubrinal + Crizotinib; first compound 8 µM) was 0.914, the relative viability ([2]; first compound 0.04 µM) was 0.278 and the relative viability ([2]; first compound 0.1265 µM) was 0.324. It also gave a relative viability ([2]; first compound 0.4 µM) of 0.241, a relative viability ([2]; first compound 1.265 µM) of 0.261 and a relative viability ([2]; first compound 4 µM) of 0.127. It also gave a relative viability (Salubrinal + Foretinib; first compound 0.08 µM) of 1.02, a relative viability (Salubrinal + Foretinib; first compound 0.253 µM) of 0.873 and a relative viability (Salubrinal + Foretinib; first compound 0.8 µM) of 1.1. For the same cell line, the relative viability (Salubrinal + Foretinib; first compound 2.53 µM) was 1 and the relative viability (Salubrinal + Foretinib; first compound 8 µM) was 0.931.
In the case of RERF-LC-KJ, the relative viability ([1]; first compound 0.04 µM) is reported as 1.09, the relative viability ([1]; first compound 0.1265 µM) is reported as 0.934 and the relative viability ([1]; first compound 0.4 µM) is reported as 0.828. For the same cell line, the relative viability ([1]; first compound 1.265 µM) was 0.942, the relative viability ([1]; first compound 4 µM) was 0.838 and the relative viability (Salubrinal + Crizotinib; first compound 0.08 µM) was 0.81. The relative viability (Salubrinal + Crizotinib; first compound 0.253 µM) was 0.718, the relative viability (Salubrinal + Crizotinib; first compound 0.8 µM) was 0.803 and the relative viability (Salubrinal + Crizotinib; first compound 2.53 µM) was 0.806. For the same cell line, the relative viability (Salubrinal + Crizotinib; first compound 8 µM) was 0.887, the relative viability ([2]; first compound 0.04 µM) was 0.995 and the relative viability ([2]; first compound 0.1265 µM) was 0.919. The relative viability ([2]; first compound 0.4 µM) was 1.06, the relative viability ([2]; first compound 1.265 µM) was 0.801 and the relative viability ([2]; first compound 4 µM) was 0.579. For the same cell line, the relative viability (Salubrinal + Foretinib; first compound 0.08 µM) was 0.959, the relative viability (Salubrinal + Foretinib; first compound 0.253 µM) was 0.699 and the relative viability (Salubrinal + Foretinib; first compound 0.8 µM) was 0.941. It also gave a relative viability (Salubrinal + Foretinib; first compound 2.53 µM) of 0.921 and a relative viability (Salubrinal + Foretinib; first compound 8 µM) of 0.706.
